Results from patent US10022377B2, “Method of treating hypertension” (Cipla Limited, priority 2015, dated 2018).

Experiments:
platelets [1] = conditions: preclinical pharmacology data; in words; cited from earlier work
[2] = tested on: rat monocrotaline (MCT) model of PAH; assay: Pulmonary arterial hypertension efficacy model: monocrotaline rat; type: in vivo, Sprague-Dawley rats; conditions: in words
Procedure: Adult male Sprague-Dawley rats (287±4 g) were obtained from Charles River Laboratories (Raleigh, N.C.). Animals housed individually in a temperature/humidity controlled room with 12-hour light/dark cycles, had free access to water and food and were acclimated for one week prior to the study. Rats were randomly assigned to one of the experimental groups (n=10 per group). Rats in groups 1 and 2 served as healthy controls; the remaining rats were injected subcutaneously on Day 0 with 60 mg/kg body weight monocrotaline, the toxic alkaloid of Crotalaria spectabilis, (dissolved in DMSO at a concentration of 60 mg/ml, Sigma Aldrich, St. Louis, Mo.). On days 1-21, the rats were dosed via oral gavage (2 ml/kg) with vehicle (PBS), or the test compound—Anagrelide. Rats were weighed daily, and the dosages of test compound adjusted appropriately.
Monocrotaline (MCT) is an 11-membered macrocyclic pyrrolizidine plant alkaloid. A single SQ injection into rats results in hepatic generation of toxic metabolite—MCT pyrrole. Phase II metabolism of MCT is through glutathione conjugation. Reactive metabolite is transported to lungs, injuring pulmonary vasculature.

[3] = tested on: rats with monocrotaline induced pulmonary arterial hypertension; assay: Hemodynamic evaluation in anesthetized rats treated with monocrotaline to induce pulmonary arterial hypertension; type: in vivo, Sprague-Dawley rats; conditions: for HR / HW/BW / Heart Wt / LV Wt / Lung Wt / MAP / Mean PAP / RV Wt / RV/BW / Systolic PAP / RV/LV + S: 28 days, MCT rats, mean ± SEM; for RV/LV + S: Fulton's Index
Procedure: The effects of sildenafil and anagrelide were evaluated in rats with monocrotaline induced pulmonary arterial hypertension. Male Sprague-Dawley rats were orally administered vehicle (variable, see below), anagrelide (1 mg/kg given once daily for 28 days or 2 mg/kg total daily dose, divided into a BID regimen given every day for 28 days starting on Day 1), or sildenafil (30 mg/kg, administered twice daily) (n=10 in each group). Rats received a single injection of monocrotaline (60 mg/kg, s.c.) on Study Day 1. On the twenty-eighth day following monocrotaline dosing, the rats were anesthetized with ketamine/xylazine for terminal monitoring of pulmonary and systemic arterial pressures along with heart rate. The study design for the test article and vehicle administrations are detailed below: […]

[4] = metabolite versus anagrelide; cited from earlier work
platelets [5] = conditions: metabolite; in words; cited from earlier work
[6] = daily oral doses for three weeks
[7] = 2 mg/kg/day given BID, after 28 days, in words
[8] = Anagrelide 1 mg/kg once daily oral
[9] = Anagrelide 2 mg/kg/day bid oral
[10] = Sildenafil 60 mg/kg/day bid oral

O=C1CN2Cc3c(ccc(Cl)c3Cl)N=C2N1 [Anagrelide, anagrelide]
effect on other cellular components of the blood (platelets [1]): no significant effect | inhibition of platelet aggregation (platelets [1]): potent inhibitor | development of PAH ([2]; daily oral doses for three weeks after MCT 60 mg/kg s.c.): prevent the development of PAH | hypertrophy of the right ventricle [2, 6]: prevents | monocrotaline (MCT)-induced elevations in pressure in the pulmonary arterial circuit [2, 6]: prevents | mean pulmonary arterial pressure compared to the vehicle group [3, 7]: differences | systolic pulmonary arterial pressure compared to the vehicle group [3, 7]: reduction | HR [3, 8]: 325 ± 28 bpm | HW/BW [3, 8]: 4.34 ± 0.45 | Heart Wt [3, 8]: 1.37 ± 0.03 g | LV Wt [3, 8]: 0.76 ± 0.01 g | Lung Wt [3, 8]: 2.10 ± 0.19 g | MAP [3, 8]: 59 ± 5 mm Hg | Mean PAP [3, 8]: 36 ± 2 mm Hg | RV Wt [3, 8]: 0.47 ± 0.01 g | RV/BW [3, 8]: 1.49 ± 0.16 | Systolic PAP [3, 8]: 44 ± 2 mm Hg | HR [3, 9]: 258 ± 10 bpm | HW/BW [3, 9]: 3.98 ± 0.24 | Heart Wt [3, 9]: 1.21 ± 0.04 g | LV Wt [3, 9]: 0.69 ± 0.02 g | Lung Wt [3, 9]: 2.21 ± 0.07 g | MAP [3, 9]: 52 ± 6 mm Hg | Mean PAP [3, 9]: 36 ± 2 mm Hg | RV Wt [3, 9]: 0.41 ± 0.02 g | RV/BW [3, 9]: 1.35 ± 0.12 | Systolic PAP [3, 9]: 43 ± 4 mm Hg | RV/LV + S [3, 8]: 0.62 ± 0.01 | RV/LV + S [3, 9]: 0.59 ± 0.04 | hypertrophy when correcting RV (wt) by body weight ([3]; at either dose, in words): decrease in hypertrophy | Mean arterial pressure compared to vehicle ([3]; in words): lower | right ventricular hypertrophy (RV/LV+S, Fulton's Index) compared to vehicle ([3]; in words): no change

O=C1NC2=Nc3ccc(Cl)c(Cl)c3CN2C1O (stereo not drawn) [BCH24426, 3-hydroxy anagrelide]
Exposure as measured by plasma AUC compared to anagrelide [4]: approximately 2 fold

CCCc1nn(C)c2c(=O)[nH]c(-c3cc(S(=O)(=O)N4CCN(C)CC4)ccc3OCC)nc12 [Sildenafil]
RV/LV + S [3, 10]: 0.51 ± 0.03 | HR [3, 10]: 278 ± 21 bpm | HW/BW [3, 10]: 3.89 ± 0.17 | Heart Wt [3, 10]: 1.24 ± 0.02 g | LV Wt [3, 10]: 0.74 ± 0.02 g | Lung Wt [3, 10]: 2.36 ± 0.13 g | MAP [3, 10]: 69 ± 5 mm Hg | Mean PAP [3, 10]: 38± 6 mm Hg | RV Wt [3, 10]: 0.38 ± 0.02 g | RV/BW [3, 10]: 1.19 ± 0.09 | Systolic PAP [3, 10]: 46 ± 7 mm Hg

NC1=Nc2ccc(Cl)c(Cl)c2CN1 [RL603, 5,6-dichloro-3,4-dihydroquinazolin-2-ylamine]
participation in the overall effect of AGRYLIN (platelets [5]): does not participate
